Data set [1] has as its target Genome polyprotein (dengue virus type 2) (UniProt P29990). The data set can be described thus: Inhibition of Dengue virus serotype 2 NS2B-NS3 protease expressed in Escherichia coli BL21 lambda (DE3) cells at 50 uM using Abz-Nle-Lys-Arg-Arg-Ser-3-(NO2)Tyr as substrate preincubated for 15 mins followed by substrate addition and measured for 15 mins by FRET assay relative to control.

Data set [2] addresses Genome polyprotein (West Nile virus) (UniProt P06935). The data set can be described thus: Inhibition of West Nile virus NS2B-NS3 protease expressed in Escherichia coli BL21 lambda (DE3) cells at 50 uM using Abz-Gly-Leu-Lys-Arg-Gly-Gly-3-(NO2)Tyr as substrate preincubated for 15 mins followed by substrate addition measured for 15 mins by fluorimetric analysis relative to control.

The target in data set [3] is Genome polyprotein (dengue virus type 2) (UniProt P29990). The data set can be described thus: Inhibition of Dengue virus serotype 2 NS2B-NS3 protease transfected in human HeLa cells at 12.5 uM measured after 24 hrs by Renilla-luciferase reporter gene assay relative to control. Format: cell-based. For orientation: A reporter such as luciferase makes a cellular process visible.

The target of data set [4] is T1, Genome polyprotein (dengue virus type 2, UniProt P29990). The data set can be described thus: Inhibition of Dengue virus serotype 2 NS2B-NS3 protease transfected in human HeLa cells measured after 24 hrs by Renilla-luciferase reporter gene assay. It counts as cell-based.
A short description of data set [5]: Cytotoxicity against human HeLa cells assessed as reduction in cell viability measured after 24 hrs by celltiter-blue assay. It counts as cell-based.
In another data set the target is Trypsin (Homo sapiens, UniProt P07477+P07478+P35030). The data set can be described thus: Inhibition of trypsin (unknown origin) at 50 uM using Boc-Val-Pro-Arg-AMC as substrate preincubated for 15 mins followed by substrate addition and measured for 15 mins by fluorimetric assay relative to control. Particulars: 0.25 h, 50 µM. It counts as protein assay.
Another data set addresses Prothrombin (Homo sapiens, UniProt P00734). The data set can be described thus: Inhibition of thrombin (unknown origin) at 25 uM using Boc-Val-Pro-Arg-AMC as substrate preincubated for 15 mins followed by substrate addition and measured for 15 mins by fluorimetric assay. Particulars: 0.25 h.
Data set [6] has as its target T1, Genome polyprotein. The data set can be described thus: Inhibition of Dengue virus serotype 2 NS2B-NS3 protease expressed in Escherichia coli BL21 lambda (DE3) cells using Abz-Nle-Lys-Arg-Arg-Ser-3-(NO2)Tyr as substrate preincubated for 15 mins followed by substrate addition and measured for 15 mins by FRET assay.
In data set [7] the target is Genome polyprotein (West Nile virus, UniProt P06935). The data set can be described thus: Inhibition of West Nile virus NS2B-NS3 protease expressed in Escherichia coli BL21 lambda (DE3) cells using Abz-Gly-Leu-Lys-Arg-Gly-Gly-3-(NO2)Tyr as substrate preincubated for 15 mins followed by substrate addition measured for 15 mins by fluorimetric analysis.

Residues, ends and D or L forms follow the SMILES beside them. *: point of attachment. Bz = O=C(c1ccccc1)*

Here are results for 21 compounds from ChEMBL document CHEMBL4619777, “A New Class of Dengue and West Nile Virus Protease Inhibitors with Submicromolar Activity in Reporter Gene DENV-2 Protease and Viral Replication Assays” (J Med Chem, 2020).

As usually defined, the inhibition is the drop in the measured response relative to a control, in per cent. A word on the EC50: it is the concentration that produces a half-maximal response. The term CC50 denotes the concentration giving 50% cytotoxicity. The term IC50 denotes the concentration that inhibits the measured activity by half.

Sequence of Genome polyprotein (West Nile virus) (P06935 whole entry): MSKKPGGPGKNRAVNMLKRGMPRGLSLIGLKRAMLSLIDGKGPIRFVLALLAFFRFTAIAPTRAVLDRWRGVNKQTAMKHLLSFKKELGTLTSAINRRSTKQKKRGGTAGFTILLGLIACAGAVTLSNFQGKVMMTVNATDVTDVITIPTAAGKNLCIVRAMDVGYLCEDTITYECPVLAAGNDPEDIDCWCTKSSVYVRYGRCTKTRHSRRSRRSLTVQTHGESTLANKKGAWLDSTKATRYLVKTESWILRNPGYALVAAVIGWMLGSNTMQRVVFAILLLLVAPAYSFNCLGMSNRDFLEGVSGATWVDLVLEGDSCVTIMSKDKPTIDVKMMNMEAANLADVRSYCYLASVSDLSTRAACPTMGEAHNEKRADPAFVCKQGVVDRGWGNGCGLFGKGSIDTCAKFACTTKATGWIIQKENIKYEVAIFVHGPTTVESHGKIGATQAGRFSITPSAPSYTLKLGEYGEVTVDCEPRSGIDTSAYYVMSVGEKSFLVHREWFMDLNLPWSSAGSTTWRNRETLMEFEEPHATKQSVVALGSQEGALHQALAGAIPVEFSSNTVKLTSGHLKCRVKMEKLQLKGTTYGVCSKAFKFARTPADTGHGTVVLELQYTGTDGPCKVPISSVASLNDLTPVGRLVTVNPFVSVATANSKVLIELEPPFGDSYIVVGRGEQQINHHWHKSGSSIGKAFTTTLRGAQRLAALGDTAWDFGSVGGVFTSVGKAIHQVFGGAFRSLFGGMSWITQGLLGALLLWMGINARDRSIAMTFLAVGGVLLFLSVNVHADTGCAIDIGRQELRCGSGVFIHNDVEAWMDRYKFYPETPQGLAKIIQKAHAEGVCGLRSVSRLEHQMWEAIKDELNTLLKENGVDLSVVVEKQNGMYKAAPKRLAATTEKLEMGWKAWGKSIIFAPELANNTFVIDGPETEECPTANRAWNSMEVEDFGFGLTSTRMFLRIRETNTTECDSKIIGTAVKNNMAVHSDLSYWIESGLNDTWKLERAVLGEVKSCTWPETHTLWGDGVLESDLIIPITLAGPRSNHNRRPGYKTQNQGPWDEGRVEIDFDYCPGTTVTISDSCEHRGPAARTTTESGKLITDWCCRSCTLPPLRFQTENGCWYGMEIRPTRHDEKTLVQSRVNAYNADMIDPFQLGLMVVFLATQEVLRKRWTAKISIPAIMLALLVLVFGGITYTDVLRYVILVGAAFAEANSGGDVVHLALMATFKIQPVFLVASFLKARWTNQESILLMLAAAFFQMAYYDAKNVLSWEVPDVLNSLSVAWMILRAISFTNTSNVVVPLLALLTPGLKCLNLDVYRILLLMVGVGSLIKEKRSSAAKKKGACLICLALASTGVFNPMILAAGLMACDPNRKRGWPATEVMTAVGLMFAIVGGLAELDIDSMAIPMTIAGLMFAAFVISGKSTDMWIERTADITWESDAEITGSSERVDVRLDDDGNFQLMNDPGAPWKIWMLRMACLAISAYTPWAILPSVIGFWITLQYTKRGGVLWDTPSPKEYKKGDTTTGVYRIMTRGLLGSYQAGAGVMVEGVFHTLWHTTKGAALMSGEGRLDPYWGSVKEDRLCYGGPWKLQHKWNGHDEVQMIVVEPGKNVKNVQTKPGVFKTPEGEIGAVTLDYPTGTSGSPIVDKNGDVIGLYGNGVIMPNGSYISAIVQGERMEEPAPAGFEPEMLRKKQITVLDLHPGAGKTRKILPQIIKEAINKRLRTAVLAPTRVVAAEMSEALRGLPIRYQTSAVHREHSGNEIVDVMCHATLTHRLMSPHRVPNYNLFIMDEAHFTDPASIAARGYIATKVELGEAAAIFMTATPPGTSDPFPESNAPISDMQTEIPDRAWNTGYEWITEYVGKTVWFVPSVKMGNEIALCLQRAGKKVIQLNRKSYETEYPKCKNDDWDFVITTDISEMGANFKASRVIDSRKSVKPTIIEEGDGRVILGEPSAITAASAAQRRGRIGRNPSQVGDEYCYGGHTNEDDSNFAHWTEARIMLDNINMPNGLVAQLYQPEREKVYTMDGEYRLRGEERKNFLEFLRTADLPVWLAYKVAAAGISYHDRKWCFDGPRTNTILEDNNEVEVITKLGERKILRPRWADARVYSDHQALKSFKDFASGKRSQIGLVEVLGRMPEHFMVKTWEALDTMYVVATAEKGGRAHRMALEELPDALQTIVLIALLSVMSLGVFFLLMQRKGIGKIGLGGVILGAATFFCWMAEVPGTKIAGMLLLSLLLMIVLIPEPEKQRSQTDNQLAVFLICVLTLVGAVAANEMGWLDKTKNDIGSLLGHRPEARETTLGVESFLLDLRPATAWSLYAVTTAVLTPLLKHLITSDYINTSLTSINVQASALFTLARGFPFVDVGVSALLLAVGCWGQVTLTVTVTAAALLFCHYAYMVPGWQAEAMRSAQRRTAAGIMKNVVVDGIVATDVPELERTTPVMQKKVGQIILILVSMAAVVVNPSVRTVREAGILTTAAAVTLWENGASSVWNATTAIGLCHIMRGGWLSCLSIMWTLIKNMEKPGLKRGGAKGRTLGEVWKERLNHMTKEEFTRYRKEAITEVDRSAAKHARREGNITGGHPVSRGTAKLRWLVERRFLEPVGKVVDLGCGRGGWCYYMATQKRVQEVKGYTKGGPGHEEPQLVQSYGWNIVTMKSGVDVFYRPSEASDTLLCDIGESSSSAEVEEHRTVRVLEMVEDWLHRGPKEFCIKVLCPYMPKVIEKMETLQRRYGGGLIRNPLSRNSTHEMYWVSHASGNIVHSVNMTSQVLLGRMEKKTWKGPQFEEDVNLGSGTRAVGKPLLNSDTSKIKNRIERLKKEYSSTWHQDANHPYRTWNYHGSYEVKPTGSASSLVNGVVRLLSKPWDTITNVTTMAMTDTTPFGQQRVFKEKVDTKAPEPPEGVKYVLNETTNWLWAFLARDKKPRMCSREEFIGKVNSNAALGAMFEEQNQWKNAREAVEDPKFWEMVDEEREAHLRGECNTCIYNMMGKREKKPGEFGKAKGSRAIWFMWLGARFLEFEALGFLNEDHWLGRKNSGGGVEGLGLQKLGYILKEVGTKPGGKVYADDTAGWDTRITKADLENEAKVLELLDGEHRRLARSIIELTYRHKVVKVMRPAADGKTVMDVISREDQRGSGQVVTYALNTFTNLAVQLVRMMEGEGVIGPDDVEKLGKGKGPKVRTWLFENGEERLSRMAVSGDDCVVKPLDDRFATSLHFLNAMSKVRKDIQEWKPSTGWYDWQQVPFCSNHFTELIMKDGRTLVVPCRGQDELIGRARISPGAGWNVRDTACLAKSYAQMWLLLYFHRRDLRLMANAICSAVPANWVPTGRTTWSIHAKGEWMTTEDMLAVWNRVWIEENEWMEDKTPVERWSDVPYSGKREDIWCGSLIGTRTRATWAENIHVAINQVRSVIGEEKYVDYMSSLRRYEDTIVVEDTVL
Sequence of Genome polyprotein (West Nile virus, UniProt P06935) (P06935 1371-1501 limits assumed): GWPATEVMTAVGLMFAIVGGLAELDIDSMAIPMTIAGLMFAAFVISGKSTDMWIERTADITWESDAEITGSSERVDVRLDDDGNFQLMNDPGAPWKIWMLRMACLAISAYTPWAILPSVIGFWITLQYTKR
Sequence of Genome polyprotein (West Nile virus, UniProt P06935) (P06935 1502-2120 limits assumed): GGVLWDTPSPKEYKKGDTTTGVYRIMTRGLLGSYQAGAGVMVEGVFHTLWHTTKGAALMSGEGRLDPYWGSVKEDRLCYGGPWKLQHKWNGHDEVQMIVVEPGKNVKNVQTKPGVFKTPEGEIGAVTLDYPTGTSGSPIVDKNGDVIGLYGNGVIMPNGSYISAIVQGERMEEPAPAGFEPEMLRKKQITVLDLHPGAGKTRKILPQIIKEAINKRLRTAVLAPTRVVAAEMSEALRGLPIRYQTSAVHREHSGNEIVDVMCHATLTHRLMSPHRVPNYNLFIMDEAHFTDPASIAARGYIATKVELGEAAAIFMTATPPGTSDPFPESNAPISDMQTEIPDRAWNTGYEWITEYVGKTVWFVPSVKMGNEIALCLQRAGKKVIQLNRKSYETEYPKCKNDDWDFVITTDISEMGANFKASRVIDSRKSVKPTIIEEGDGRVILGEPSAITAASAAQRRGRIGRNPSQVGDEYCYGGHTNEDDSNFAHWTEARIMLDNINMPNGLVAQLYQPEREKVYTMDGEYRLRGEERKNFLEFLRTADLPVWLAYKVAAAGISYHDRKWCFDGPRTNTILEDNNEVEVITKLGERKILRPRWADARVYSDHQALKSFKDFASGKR

As for `CCCCC(=O)N[C@H](C(=O)NCc1ccc(NC(=N)N)cc1)c1ccc(OCc2ccccc2)cc1.O=C(O)C(F)(F)F`, the inhibition in data set [1] is 22%; in [2] it was 11.2%; in [3], 69.4%. At Genome polyprotein [4], this compound displayed an EC50 of 2.8 µM. Besides, the 50% cytotoxic concentration (CC50) at 24 h in data set [5] was above 50 µM. The “inhibition (INH)” value on Trypsin and against Prothrombin was “Not Active” throughout.
Take `CCCCCC(=O)N[C@H](C(=O)Nc1ccc2[nH]ncc2c1)c1ccc(OCc2ccccc2)cc1`: the inhibition in data set [1] worked out at 22.4%; in [2], 26%; in data set [3], 65.4%. Moreover, it took 6.9 µM to reach a half-maximal effect at Genome polyprotein [4] (EC50). Besides, the CC50 at 24 h in data set [5] was above 50 µM. Besides, the “inhibition (INH)” value against Trypsin and against Prothrombin was “Not Active” in each case.
`CCCCCC(=O)N[C@H](C(=O)NCc1ccc(N)nc1)c1ccc(OCc2ccccc2)cc1.O=C(O)C(F)(F)F`: the inhibition worked out at 22.6% in data set [1], 37.8% in data set [2] and 57% in data set [3]. Also, the EC50 on Genome polyprotein [4] amounted to 13 µM. Further, the CC50 at 24 h in data set [5] is above 50 µM. In addition, the “inhibition (INH)” value on Trypsin and against Prothrombin was “Not Active” throughout.
Turning to `CCCCCC(=O)N[C@H](C(=O)NCCCCCCNC(=N)N)c1ccc(OCc2ccccc2)cc1`, the inhibition is below 10% in data set [1], 28.3% in data set [2] and 61% in [3]. In addition, at Genome polyprotein [4], a half-maximal response (EC50) required 7.7 µM. Moreover, the CC50 at 24 h in [5] is above 50 µM. For the same compound, the “inhibition (INH)” value against Trypsin and on Prothrombin was “Not Active” throughout.
Regarding `CCCCCC(=O)N[C@H](C(=O)NCc1ccc(NC(=N)N)cc1)c1ccc(OCc2ccc(C(C)(C)C)cc2)cc1.O=C(O)C(F)(F)F`, the inhibition was 98.1% in data set [1], 98.9% in [2] and 38.7% in data set [3]. Further, the 50% inhibitory concentration (IC50) against Genome polyprotein [6] was found to be 13 µM; against Genome polyprotein [7], 16 µM. Also, the CC50 at 24 h in [5] was above 12.5 µM. Moreover, the “inhibition (INH)” value against Trypsin and at Prothrombin was “Not Active” in each case.
As to `N=C(N)Nc1ccc(CNC(=O)[C@@H](NC(=O)c2ccc(OCc3ccc(Cl)cc3)cc2)c2ccc(OCc3ccccc3)cc2)cc1.O=C(O)C(F)(F)F`, the inhibition in data set [1] is 98.7%; in data set [2], 103%; in [3], 44.6%. The IC50 turned out to be 2.2 µM against Genome polyprotein [6] and 2.5 µM on Genome polyprotein [7]. In addition, the CC50 at 24 h in data set [5] was above 12.5 µM. The “inhibition (INH)” value against Trypsin and on Prothrombin was “Not Active” in each case.
Turning to `CCCCCC(=O)N[C@H](C(=O)NCc1ccc(CN(C)C)cc1)c1ccc(OCc2ccccc2)cc1`, the values for the inhibition in [1], in data set [2] and in data set [3] were below 10%, below 10% and 65.7%, respectively. On Genome polyprotein [4], this compound gave an EC50 of 6.7 µM. Moreover, in [5], the CC50 at 24 h is above 12.5 µM. Besides, the “inhibition (INH)” value on Trypsin and against Prothrombin was “Not Active” each time.
Take `CCCCCC(=O)N[C@@H](C(=O)NCc1ccc(CN)cc1)c1ccc(OCc2ccc(Cl)c(Cl)c2)cc1.O=C(O)C(F)(F)F`: the inhibition in data set [1] was determined as 95.2%; in data set [2], 100%. Besides, the figures for the IC50 against Genome polyprotein [6] and against Genome polyprotein [7] were 3.1 µM and 11 µM, respectively. Besides, in [5], the CC50 at 24 h was below 12.5 µM. Also, the “inhibition (INH)” value against Trypsin and at Prothrombin was “Not Active” in each case.
In the case of `CCCCCC(=O)N[C@@H](C(=O)NCc1ccc(NC(=N)N)cc1)c1ccc(OCc2ccc(C(F)(F)F)cc2)cc1.O=C(O)C(F)(F)F`, the inhibition in data set [1] stood at 96.7%; in data set [2] it was 102%; in data set [3], 44.6%. Further, the IC50 worked out at 6.6 µM against Genome polyprotein [6] and 14 µM on Genome polyprotein [7]. Moreover, the CC50 at 24 h in data set [5] was above 50 µM. The “inhibition (INH)” value against Trypsin and on Prothrombin was “Not Active” each time.
`CCCCCC(=O)N[C@H](C(=O)NCc1ccc(NC(=N)N)cc1)c1ccc(OCc2ccc(C#N)cc2)cc1.O=C(O)C(F)(F)F`: the inhibition in data set [1] came out at 74.3%; in data set [2], 24.8%; in [3] it was 12.7%. This compound registered an IC50 against Genome polyprotein [6] of 40 µM. In addition, in data set [5], the CC50 at 24 h was above 50 µM. Also, the “inhibition (INH)” value against Trypsin and at Prothrombin was “Not Active” in each case.
As to `N=C(N)Nc1ccc(CNC(=O)[C@@H](NC(=O)CC2CCCCC2)c2ccc(OCc3ccccc3)cc2)cc1.O=C(O)C(F)(F)F`, the inhibition in data set [1] was determined as 100%; in data set [2], 99.5%; in data set [3] it was 41.7%. Further, the IC50 amounted to 9 µM against Genome polyprotein [6] and 28 µM at Genome polyprotein [7]. Besides, in data set [5], the CC50 at 24 h is above 50 µM. Besides, the “inhibition (INH)” value against Trypsin and at Prothrombin was “Not Active” each time.
`CCCCCC(=O)N[C@H](C(=O)Nc1ccc(N)cc1)c1ccc(OCc2ccccc2)cc1.O=C(O)C(F)(F)F`: the inhibition came to 13.2% in data set [1], 10.7% in data set [2] and 49.5% in [3]. Moreover, the CC50 at 24 h in data set [5] is above 50 µM. In addition, the “inhibition (INH)” value against Trypsin and at Prothrombin was “Not Active” each time.
As to `N=C(N)NCCC[C@H](NC(=O)c1ccccc1)C(=O)N[C@@H](CCCCN)C(=O)NCC(N)=O` (Bz-Arg-Lys-Gly-NH2), the inhibition in data set [1] is 68.6%; in data set [2], 15.3%; in data set [3], below 10%. Moreover, on Genome polyprotein [6], the midpoint of inhibition, the IC50, lay at 23 µM. Also, the “inhibition (INH)” value at Trypsin and at Prothrombin was “Not Active” each time.
As to `CC(=O)N[C@H](C(=O)NCc1ccc(NC(=N)N)cc1)c1ccc(OCc2ccccc2)cc1.O=C(O)C(F)(F)F`, the inhibition in data set [1] is below 10%; in data set [2] it was below 10%; in data set [3], 28.9%. For the same compound, the CC50 at 24 h in [5] is above 50 µM. Also, the “inhibition (INH)” value at Trypsin and against Prothrombin was “Not Active” in each case.
Take `N=C(N)Nc1ccc(CNC(=O)[C@@H](NC(=O)c2ccccc2-c2ccccc2)c2ccc(OCc3ccccc3)cc2)cc1.O=C(O)C(F)(F)F`: the inhibition in [1] came to 93.3%; in data set [2], 88.1%; in data set [3], 30.1%. Besides, the IC50 on Genome polyprotein [6] was found to be 24 µM; against Genome polyprotein [7], 35 µM. Also, in data set [5], the CC50 at 24 h is above 50 µM. The “inhibition (INH)” value against Trypsin and against Prothrombin was “Not Active” each time.
On to `CCCCCC(=O)N[C@H](C(=O)NCc1ccc(C#N)cc1)c1ccc(OCc2ccccc2)cc1`, for which the inhibition is below 10% in [1], 25.6% in data set [2] and 28.3% in [3]. For the same compound, the CC50 at 24 h in data set [5] is above 50 µM. Besides, the “inhibition (INH)” value on Trypsin and against Prothrombin was “Not Active” throughout.
On to `CCCCCC(=O)N[C@H](C(=O)NCc1ccc(NC(=N)N)cc1)c1ccc(OCc2cccc(OC)c2)cc1.O=C(O)C(F)(F)F`, for which the results for the inhibition in [1], in data set [2] and in [3] were 32.5%, 15.7% and 26%, respectively. Also, in data set [5], the CC50 at 24 h was above 50 µM. The “inhibition (INH)” value at Trypsin and on Prothrombin was “Not Active” each time.
In the case of `CCCCCC(=O)N[C@H](C(=O)N[C@@H](CCCCN)C(N)=O)c1ccc(OCc2ccccc2)cc1`, the inhibition in data set [1] is below 10%; in data set [2], below 10%; in [3], 11.1%. For the same compound, the 50% cytotoxic concentration (CC50) at 24 h in [5] was above 50 µM. The “inhibition (INH)” value against Trypsin and against Prothrombin was “Not Active” in each case.
On to `CCCCCC(=O)N[C@H](C(=O)NCc1ccncc1)c1ccc(OCc2ccccc2)cc1`, for which the inhibition in [1] was below 10%; in data set [2], below 10%; in [3], 40.6%. In addition, the CC50 at 24 h in data set [5] is above 50 µM. Besides, the “inhibition (INH)” value against Trypsin and against Prothrombin was “Not Active” each time.
In the case of `CCCCCC(=O)N[C@H](C(=O)NCCN)c1ccc(OCc2ccccc2)cc1`, the results for the inhibition in data set [1], in data set [2] and in data set [3] were below 10%, below 10% and 44%, respectively. Also, the CC50 at 24 h in data set [5] was above 50 µM. Moreover, the “inhibition (INH)” value against Trypsin and against Prothrombin was “Not Active” throughout.
Take `N=C(N)Nc1ccc(CNC(=O)[C@@H](NC(=O)c2ccccc2)c2ccc(OCc3ccccc3)cc2)cc1.O=C(O)C(F)(F)F`: the figures for the inhibition in [1], in [2] and in data set [3] were 39%, 18.9% and 10.5%, respectively. For the same compound, the CC50 at 24 h in data set [5] is above 50 µM. The “inhibition (INH)” value against Trypsin and at Prothrombin was “Not Active” in each case.
